Experimental data as given in the NIST ThermoML archive (doi:10.1016/j.jct.2011.02.008).

Test: xn = mol fraction of the nth substance listed
Details: 298.15 K, Liquid, Vibrating tube method

COC(=O)c1ccccc1 [methyl benzoate] + CCCCCCO
mass density [kg/m3]
Details	10000 kPa	15000 kPa	20000 kPa	25000 kPa	30000 kPa	35000 kPa	40000 kPa	45000 kPa	50000 kPa
x1 = 0.1004	–	851.5	854.5	857.5	860.4	863.2	865.9	868.6	871.1
x1 = 0.2007	–	878	881.1	884.1	886.9	889.7	892.5	895.1	897.7
x1 = 0.3007	–	904.9	907.9	910.9	913.8	916.6	919.3	921.9	924.5
x1 = 0.4013	–	931.7	934.7	937.7	940.5	943.3	946.1	948.7	–
x1 = 0.5005	955.1	958.3	961.3	964.2	967.1	969.9	972.6	975.3	–
x1 = 0.6009	982	985.1	988.1	991	993.9	996.6	999.3	1002	–
x1 = 0.7	1008.4	1011.5	1014.5	1017.4	1020.3	1023	1025.7	1028.4	–
x1 = 0.8008	1035.4	1038.5	1041.5	1044.4	1047.2	1049.9	1052.6	1055.3	–
x1 = 0.9009	1062.3	1065.3	1068.3	1071.2	1074	1076.7	1079.4	1082	–
